Source: patent publication US11453642B2, “Oxygenated amino- or ammonium-containing sulfonic acid, phosphonic acid and carboxylic acid derivatives and their medical use” (GRI BIO, INC., priority 2011, dated 2022)

Legend:
[1] = tested on: local lymph node reaction; assay: Local lymph node weight and cell count after TDI challenge; type: in vivo, mice; conditions: topical 1a 2% or 6%, diflorasone 0.1% and 0.5%
Protocol: Directly after sacrifice, the ear draining lymph node (Ln. auricularis) was prepared and excised. Organ weight was determined by means of an analytical balance (Kern, Balingen, Germany). Single cell suspensions were prepared by means of a glass potter (VWR, Darmstadt, Germany) and cells were counted with a hemocytometer (Neubauer, VWR, Germany).
One of the most undesirable side-effects of corticosteroid administration is immunosuppression, which leads to the inability to effectively address parasitic infection, wound healing and tumor growth. In the current study, the local lymph node reaction after TDI challenge (lymph node weight and cell number) was determined to assess the response of immune organs.

[2] = tested on: collagen type II-induced arthritis (CIA)
[3] = Pharmacokinetic study after a single oral administration to mice; type: in vivo
Protocol: The aim of the study was to evaluate pharmacokinetic (PK) properties of five different batches including anhydrates and monohydrates of the crystal form A of compound 1a (cf. Table 1 in Example 5) after a single oral administration to mice. Three of the forms were anhydrous and two were monohydrates.
Compound 1a was administered as a suspension of 0.5% methyl cellulose (Sigma-Aldrich) in water at a dose of 100 mg/kg (10 ml/kg) by oral gavage to non-fasted female Balb/c mice (n=3).
Blood was collected by decapitation at 0.5, 1, 2, 4, 8, 12, 24, and 48 h after administration. Blood plasma was isolated by centrifugation at 4° C. (20,000×g for 10 min), transferred to microtubes containing lithium-heparin and frozen in aliquots at −70° C. until assayed by mass-spectrometry. Mean plasma concentration-time profiles (semi-logarithmic) of the five polymorphic crystal forms of compound 1a are shown in FIG. 6.
For PK evaluation, summary statistics and plotting of concentration/time curves, all values below the lower limit of quantification (LLOQ) were set to zero.

[4] = tested on: RBL-2H3 cells; assay: Inhibition of mast cell degranulation (β-hexosaminidase release); type: cell-based; conditions: Rattus norvegicus, IgE-sensitized RBL-2H3 cells, 1 h with compound, antigen (DNP-HSA) 15 min
From the text: Mast cells are key effector cells involved in allergic and inflammatory diseases, and the Rat Basophilic Leukemia clone 2H3 (RBL-2H3) cell line is a commonly used model of allergen dependent immune modulator release (degranulation) in mast cells. On their surface, they express the high affinity receptor for IgE (FcεRI). Upon binding of antigen-specific IgE to the receptor, cells become sensitized to the IgE specific antigen (allergen). When IgE-sensitized cells then encounter multivalent antigen, the antigen clusters IgE-FcεRI complexes and initiates a signal transduction cascade that leads to degranulation, that is, the release of inflammatory mediators, such as cytokines, eicosanoids, histamine and enzymes. The assay can be used as a screening method to identify immune-modulating compounds, in particular compounds useful in the medical management of allergic and inflammatory diseases and asthma, β-hexosaminidase was previously shown to be released with the same kinetics as histamine (Schwartz et al., J Immunology; 123:1445-1450 (1979)), thus offering a simple means to monitor degranulation. […]
MUG substrate solution, 100 μl, were added to supernatant and lysate samples and plates were incubated 30 min at 37° C. […] Fluorescence was measured at 365 nm excitation and 440 nm emission wavelengths. […]

Structure (SMILES)	local lymph node reaction (lymph node weight and cell number) [1]	spleen and thymus weights ([2]; mouse, in vivo)	toxic effects ([2]; mouse, in vivo)	cumulative arthritis score and paw thickness ([2]; prophylactic regimen day 0-47, 25 and 100 mg/kg orally twice daily, vs vehicle)	arthritis score and cumulative arthritis score ([2]; therapeutic regimen, 100 mg/kg orally twice daily for 20 days, day 11 to 13 and day 21, vs vehicle)	tmax ([3]; female, Balb/c, mouse, plasma, po, 100 mg/kg, female Balb/c mice, single oral 100 mg/kg in 0.5% methylcellulose, plasma, read-out: tmax) [h]	overt toxicity ([3]; single oral 100 mg/kg, regardless of the polymorphic crystal form)	IC50 [4] [µM]
CCCCCCCCCCCCCCCCN(C)CC(O)CS(=O)(=O)O (centres unmarked) [Compound 1a, 2-hydroxy-3-(N-methylhexadecylammonio)propane-sulfonate]	did not have any impact	did not reduce	did not show any toxic effects	reduced	significantly reduced	1 to 2	No overt toxicity	–
CCCCCCCCCCCCN(C)CC(O)CS(=O)(=O)O (centres unmarked) [Compound 1c, 2-hydroxy-3-(N-methyldodecylammonio)propanesulfonate]	–	–	–	–	–	–	–	4.1
